Results published in publication PMC10175918 (Communications Biology, 2023).
Where two headings read alike, the source gives them in different places.

How the values were obtained:
Assay in all cases: TGFα-shedding assay-based GPCR screening with chimeric Gα subunit proteins
Assay type in all cases: cell-based
[1] = target: T1, 348 GPCRs (Homo sapiens, UniProt O00270); settings: 10µM, Favipiravir 100μM
T1 construct: expressed in transfected cells; host or cells: HEK293A

[2] = target: 348 GPCRs (Homo sapiens, UniProt P21554); settings: read-out: % GPCR activation compared to TPA, CB1 (cannabinoid receptor 1); 10µM, Favipiravir 100μM
Sequence of 348 GPCRs (Homo sapiens, UniProt P21554) (P21554 whole entry): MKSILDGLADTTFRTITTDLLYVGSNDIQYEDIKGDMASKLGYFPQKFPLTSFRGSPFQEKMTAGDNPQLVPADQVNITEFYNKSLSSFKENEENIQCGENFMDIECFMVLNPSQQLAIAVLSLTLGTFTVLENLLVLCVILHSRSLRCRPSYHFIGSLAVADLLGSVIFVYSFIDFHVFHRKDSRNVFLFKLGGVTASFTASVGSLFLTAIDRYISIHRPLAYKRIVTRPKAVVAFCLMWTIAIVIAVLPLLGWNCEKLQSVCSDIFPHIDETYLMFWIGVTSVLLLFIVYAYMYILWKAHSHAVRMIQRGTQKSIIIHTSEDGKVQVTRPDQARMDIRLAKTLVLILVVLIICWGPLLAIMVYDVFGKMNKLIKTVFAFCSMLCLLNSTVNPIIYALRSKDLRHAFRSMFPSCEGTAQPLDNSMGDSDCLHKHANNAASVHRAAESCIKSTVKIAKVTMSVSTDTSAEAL

[3] = target: 348 GPCRs (Homo sapiens, UniProt P35372); settings: 10µM, Favipiravir 100μM
Sequence of 348 GPCRs (Homo sapiens, UniProt P35372) (P35372 whole entry): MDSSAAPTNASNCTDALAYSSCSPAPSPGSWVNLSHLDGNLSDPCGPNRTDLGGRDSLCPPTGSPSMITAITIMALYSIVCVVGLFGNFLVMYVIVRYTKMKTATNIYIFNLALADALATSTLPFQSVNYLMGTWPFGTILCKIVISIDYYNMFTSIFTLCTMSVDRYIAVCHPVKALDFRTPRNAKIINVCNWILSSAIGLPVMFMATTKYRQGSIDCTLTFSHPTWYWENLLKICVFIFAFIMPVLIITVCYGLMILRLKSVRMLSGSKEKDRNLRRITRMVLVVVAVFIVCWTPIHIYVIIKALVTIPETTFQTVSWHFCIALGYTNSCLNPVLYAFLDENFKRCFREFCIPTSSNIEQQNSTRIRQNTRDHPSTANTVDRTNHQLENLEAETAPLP

[4] = target: T2, 348 GPCRs (Homo sapiens, UniProt P43116); settings: 10µM, Favipiravir 100μM
T2 construct: expressed in transfected cells; host or cells: HEK293A
T2 sequence (P43116 whole entry): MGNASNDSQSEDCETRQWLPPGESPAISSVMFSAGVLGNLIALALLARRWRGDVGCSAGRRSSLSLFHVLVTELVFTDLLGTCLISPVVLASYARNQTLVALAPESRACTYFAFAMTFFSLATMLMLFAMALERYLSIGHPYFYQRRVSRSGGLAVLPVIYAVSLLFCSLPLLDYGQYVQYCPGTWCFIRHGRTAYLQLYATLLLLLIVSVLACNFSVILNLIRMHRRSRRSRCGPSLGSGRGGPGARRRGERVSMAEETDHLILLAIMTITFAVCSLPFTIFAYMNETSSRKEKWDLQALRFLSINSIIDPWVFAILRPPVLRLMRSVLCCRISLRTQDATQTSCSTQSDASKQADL

[5] = target: T3, 348 GPCRs (Homo sapiens, UniProt P47901)
T3 construct: expressed in transfected cells; host or cells: HEK293A
T3 sequence (P47901 1-424): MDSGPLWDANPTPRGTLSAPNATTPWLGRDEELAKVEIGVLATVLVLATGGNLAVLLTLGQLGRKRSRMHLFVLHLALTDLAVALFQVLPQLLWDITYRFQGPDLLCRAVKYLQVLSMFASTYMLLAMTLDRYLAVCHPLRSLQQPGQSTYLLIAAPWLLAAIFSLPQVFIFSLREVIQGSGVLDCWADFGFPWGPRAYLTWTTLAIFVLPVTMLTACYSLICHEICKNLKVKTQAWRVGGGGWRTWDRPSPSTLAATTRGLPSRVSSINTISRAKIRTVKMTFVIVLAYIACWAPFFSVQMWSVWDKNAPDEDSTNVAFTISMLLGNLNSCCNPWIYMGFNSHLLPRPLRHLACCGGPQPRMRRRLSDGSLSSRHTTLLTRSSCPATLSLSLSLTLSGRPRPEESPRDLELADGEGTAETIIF

[6] = target: T4, 348 GPCRs (Homo sapiens, UniProt P49682)
T4 construct: expressed in transfected cells; host or cells: HEK293A
T4 sequence (P49682 1-368): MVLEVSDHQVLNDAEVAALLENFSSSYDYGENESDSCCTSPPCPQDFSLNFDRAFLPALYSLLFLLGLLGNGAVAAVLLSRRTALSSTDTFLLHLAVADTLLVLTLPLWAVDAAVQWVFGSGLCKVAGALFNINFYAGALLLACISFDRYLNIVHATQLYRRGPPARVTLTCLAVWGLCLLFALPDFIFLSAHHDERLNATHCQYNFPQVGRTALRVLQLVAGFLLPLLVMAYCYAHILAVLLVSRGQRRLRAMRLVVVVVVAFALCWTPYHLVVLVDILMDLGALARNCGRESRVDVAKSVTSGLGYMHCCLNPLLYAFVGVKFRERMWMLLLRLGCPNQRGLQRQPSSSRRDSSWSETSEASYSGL

[7] = target: T5, 348 GPCRs (Homo sapiens, UniProt Q13258); settings: 10µM, Favipiravir 100μM
T5 sequence (Q13258 1-359): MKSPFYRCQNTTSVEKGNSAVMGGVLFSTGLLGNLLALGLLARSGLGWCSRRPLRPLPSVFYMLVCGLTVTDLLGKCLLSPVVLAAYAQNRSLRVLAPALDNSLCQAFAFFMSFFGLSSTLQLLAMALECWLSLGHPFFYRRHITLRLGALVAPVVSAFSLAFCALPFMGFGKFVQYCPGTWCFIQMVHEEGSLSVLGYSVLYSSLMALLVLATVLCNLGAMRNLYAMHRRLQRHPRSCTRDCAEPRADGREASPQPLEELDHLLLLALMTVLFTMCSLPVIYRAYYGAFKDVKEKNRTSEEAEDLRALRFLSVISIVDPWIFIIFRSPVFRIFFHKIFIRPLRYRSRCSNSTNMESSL

[8] = target: T6, 348 GPCRs (Homo sapiens, UniProt Q8TCW9)
T6 construct: expressed in transfected cells; host or cells: HEK293A
T6 sequence (Q8TCW9 whole entry): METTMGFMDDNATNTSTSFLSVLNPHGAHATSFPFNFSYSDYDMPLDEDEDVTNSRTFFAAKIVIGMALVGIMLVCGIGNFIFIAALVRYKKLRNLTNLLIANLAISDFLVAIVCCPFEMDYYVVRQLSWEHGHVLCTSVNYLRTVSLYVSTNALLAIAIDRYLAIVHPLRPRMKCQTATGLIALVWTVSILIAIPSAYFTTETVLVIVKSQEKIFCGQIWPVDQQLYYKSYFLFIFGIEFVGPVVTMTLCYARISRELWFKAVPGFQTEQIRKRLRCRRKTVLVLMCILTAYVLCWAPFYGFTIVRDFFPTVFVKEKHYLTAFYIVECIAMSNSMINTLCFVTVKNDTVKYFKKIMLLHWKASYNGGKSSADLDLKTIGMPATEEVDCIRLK

[9] = target: T7, 348 GPCRs (Homo sapiens, UniProt Q92847); settings: 10µM, Favipiravir 100μM
T7 construct: expressed in transfected cells; host or cells: HEK293A
T7 sequence (Q92847 whole entry): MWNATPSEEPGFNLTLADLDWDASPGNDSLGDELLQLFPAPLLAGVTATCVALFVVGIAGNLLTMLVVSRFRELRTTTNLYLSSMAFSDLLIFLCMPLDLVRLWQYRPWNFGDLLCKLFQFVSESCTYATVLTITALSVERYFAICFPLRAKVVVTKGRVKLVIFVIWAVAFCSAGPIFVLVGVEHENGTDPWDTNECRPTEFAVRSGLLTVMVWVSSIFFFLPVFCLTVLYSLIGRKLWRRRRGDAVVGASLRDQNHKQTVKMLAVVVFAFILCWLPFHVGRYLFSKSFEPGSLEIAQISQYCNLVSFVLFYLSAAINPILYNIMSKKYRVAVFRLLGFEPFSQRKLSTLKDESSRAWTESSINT

[10] = target: T8, 348 GPCRs (Homo sapiens, UniProt Q9NS66); settings: 10µM, Favipiravir 100μM
T8 construct: expressed in transfected cells; host or cells: HEK293A
T8 sequence (Q9NS66 whole entry): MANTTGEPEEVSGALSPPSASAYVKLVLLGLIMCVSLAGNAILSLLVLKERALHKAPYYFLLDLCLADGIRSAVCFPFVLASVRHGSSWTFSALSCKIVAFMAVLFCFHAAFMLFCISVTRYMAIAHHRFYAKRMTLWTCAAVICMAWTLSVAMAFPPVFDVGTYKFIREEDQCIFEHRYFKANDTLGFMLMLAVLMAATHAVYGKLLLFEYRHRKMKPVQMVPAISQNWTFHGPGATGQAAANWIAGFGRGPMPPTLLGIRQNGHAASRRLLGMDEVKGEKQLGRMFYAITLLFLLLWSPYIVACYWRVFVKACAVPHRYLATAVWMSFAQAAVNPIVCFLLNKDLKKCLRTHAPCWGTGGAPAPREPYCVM

[11] = target: T9, 348 GPCRs (Homo sapiens, UniProt Q9NYM4); settings: 10µM, Favipiravir 100μM
T9 construct: expressed in transfected cells; host or cells: HEK293A
T9 sequence (Q9NYM4 17-423): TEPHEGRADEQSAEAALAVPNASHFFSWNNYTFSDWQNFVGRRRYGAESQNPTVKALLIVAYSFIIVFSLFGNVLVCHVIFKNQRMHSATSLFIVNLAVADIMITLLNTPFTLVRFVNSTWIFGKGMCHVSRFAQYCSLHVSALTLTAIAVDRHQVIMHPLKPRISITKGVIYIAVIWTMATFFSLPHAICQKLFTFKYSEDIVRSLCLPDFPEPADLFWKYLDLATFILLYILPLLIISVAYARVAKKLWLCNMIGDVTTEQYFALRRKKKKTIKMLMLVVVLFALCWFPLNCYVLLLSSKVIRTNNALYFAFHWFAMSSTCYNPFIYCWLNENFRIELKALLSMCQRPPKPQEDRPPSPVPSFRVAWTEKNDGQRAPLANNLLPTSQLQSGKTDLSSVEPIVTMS

[12] = target: T10, 348 GPCRs (Homo sapiens, UniProt Q9Y5Y4); settings: 10µM, Favipiravir 100μM
T10 construct: expressed in transfected cells; host or cells: HEK293A
T10 sequence (Q9Y5Y4 1-395): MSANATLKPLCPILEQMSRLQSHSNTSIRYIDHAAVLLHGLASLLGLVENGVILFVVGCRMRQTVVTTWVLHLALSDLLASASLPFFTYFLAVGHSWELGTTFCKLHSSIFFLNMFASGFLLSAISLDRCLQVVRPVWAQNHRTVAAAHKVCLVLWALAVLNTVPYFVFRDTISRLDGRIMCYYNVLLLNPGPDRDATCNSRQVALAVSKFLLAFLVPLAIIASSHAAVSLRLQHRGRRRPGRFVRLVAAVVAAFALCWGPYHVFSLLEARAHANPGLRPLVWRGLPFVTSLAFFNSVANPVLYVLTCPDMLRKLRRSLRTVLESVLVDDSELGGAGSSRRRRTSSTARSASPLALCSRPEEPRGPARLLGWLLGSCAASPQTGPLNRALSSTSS

[13] = target: T11, 348 GPCRs (Homo sapiens, UniProt Q9Y653)
T11 construct: expressed in transfected cells; host or cells: HEK293A
T11 sequence (Q9Y653 26-693): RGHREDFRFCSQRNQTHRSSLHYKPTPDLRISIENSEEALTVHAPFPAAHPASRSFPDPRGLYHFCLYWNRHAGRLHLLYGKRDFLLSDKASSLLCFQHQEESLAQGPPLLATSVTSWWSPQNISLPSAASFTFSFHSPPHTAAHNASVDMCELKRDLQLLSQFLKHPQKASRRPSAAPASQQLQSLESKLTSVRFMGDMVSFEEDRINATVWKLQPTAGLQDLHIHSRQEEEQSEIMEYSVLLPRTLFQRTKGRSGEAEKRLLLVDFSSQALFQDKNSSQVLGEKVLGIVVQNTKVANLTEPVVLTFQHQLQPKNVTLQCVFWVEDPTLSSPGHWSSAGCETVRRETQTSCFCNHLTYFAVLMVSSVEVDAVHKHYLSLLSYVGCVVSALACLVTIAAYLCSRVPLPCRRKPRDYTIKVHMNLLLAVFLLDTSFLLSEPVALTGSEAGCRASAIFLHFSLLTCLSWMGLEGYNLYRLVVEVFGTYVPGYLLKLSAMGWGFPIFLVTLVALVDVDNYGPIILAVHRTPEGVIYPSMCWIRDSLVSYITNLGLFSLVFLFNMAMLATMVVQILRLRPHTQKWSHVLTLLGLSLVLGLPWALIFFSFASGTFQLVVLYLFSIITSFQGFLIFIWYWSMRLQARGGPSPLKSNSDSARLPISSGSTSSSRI

[14] = GPR31 (G Protein-Coupled Receptor 31), read-out: % GPCR activation compared to TPA
[15] = OPRM1, read-out: % GPCR activation compared to TPA, OPRM1 (opioid receptor, mu 1 (MOR1))
[16] = EP2 (prostaglandin E receptor 2), read-out: % GPCR activation compared to TPA
[17] = GPCR V1B (arginine vasopressin receptor 1B), read-out: % GPCR activation compared to TPA
[18] = GPCR CXCR3 (C-X-C motif chemokine receptor 3), read-out: % GPCR activation compared to TPA
[19] = DP (prostaglandin D2 receptor), read-out: % GPCR activation compared to TPA
[20] = GPCR PK1 (prokineticin receptor 1), read-out: % GPCR activation compared to TPA
[21] = GHSR (growth hormone secretagogue receptor), read-out: % GPCR activation compared to TPA
[22] = GPR173 (G protein-coupled receptor 173), read-out: % GPCR activation compared to TPA
[23] = GPR83 (G Protein-Coupled Receptor 83), read-out: % GPCR activation compared to TPA
[24] = DP2 (prostaglandin D2 receptor 2), read-out: % GPCR activation compared to TPA
[25] = GPCR GPR56 (G protein-coupled receptor 56), read-out: % GPCR activation compared to TPA
[26] = read-out: % GPCR activation compared to TPA, GPR31 (G Protein-Coupled Receptor 31)
[27] = read-out: % GPCR activation compared to TPA, EP2 (prostaglandin E receptor 2)
[28] = read-out: % GPCR activation compared to TPA, GPCR V1B (arginine vasopressin receptor 1B)
[29] = read-out: % GPCR activation compared to TPA, GPCR CXCR3 (C-X-C motif chemokine receptor 3)
[30] = read-out: % GPCR activation compared to TPA, DP (prostaglandin D2 receptor)
[31] = read-out: % GPCR activation compared to TPA, GPCR PK1 (prokineticin receptor 1)
[32] = read-out: % GPCR activation compared to TPA, GHSR (growth hormone secretagogue receptor)
[33] = read-out: % GPCR activation compared to TPA, GPR173 (G protein-coupled receptor 173)
[34] = read-out: % GPCR activation compared to TPA, GPR83 (G Protein-Coupled Receptor 83)
[35] = read-out: % GPCR activation compared to TPA, DP2 (prostaglandin D2 receptor 2)
[36] = read-out: % GPCR activation compared to TPA, GPCR GPR56 (G protein-coupled receptor 56)

T1 sequence (O00270 whole entry): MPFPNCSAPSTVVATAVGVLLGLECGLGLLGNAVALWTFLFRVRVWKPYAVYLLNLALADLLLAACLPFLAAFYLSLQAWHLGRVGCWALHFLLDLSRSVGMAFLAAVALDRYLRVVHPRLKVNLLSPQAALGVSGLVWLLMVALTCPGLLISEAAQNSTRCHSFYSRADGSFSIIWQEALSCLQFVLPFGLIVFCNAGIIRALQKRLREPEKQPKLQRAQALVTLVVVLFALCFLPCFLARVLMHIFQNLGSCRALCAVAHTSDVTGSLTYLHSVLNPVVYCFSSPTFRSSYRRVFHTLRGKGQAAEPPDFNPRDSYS

| SMILES | activation at 100 µM [1, 14] [%] | activation at 100 µM [2] [%] | activation at 10 µM [3, 15] [%] | activation at 10 µM [4, 16] [%] | activation at 10 µM [5, 17] [%] | activation at 10 µM [6, 18] [%] | activation at 100 µM [7, 19] [%] | activation at 10 µM [8, 20] [%] | activation at 10 µM [9, 21] [%] | activation at 10 µM [10, 22] [%] | activation at 100 µM [11, 23] [%] | activation at 100 µM [12, 24] [%] | activation at 10 µM [13, 25] [%] | activation at 100 µM [1, 26] [%] | activation at 10 µM [4, 27] [%] | activation at 10 µM [5, 28] [%] | activation at 10 µM [6, 29] [%] | activation at 100 µM [7, 30] [%] | activation at 10 µM [8, 31] [%] | activation at 10 µM [9, 32] [%] | other results |
| --- | --- | --- | --- | --- | --- | --- | --- | --- | --- | --- | --- | --- | --- | --- | --- | --- | --- | --- | --- | --- | --- |
| N#C[C@@]1(c2ccc3c(N)ncnn23)O[C@H](CO)[C@@H](O)[C@H]1O [GS441524] | -1.59 | 0.0409 | -2.75 | -0.304 | 0.627 | -3.08 | -1.84 | -2.68 | -4.16 | 0.119 | -1.11 | -0.745 | -3.73 |  |  |  |  |  |  |  |  |
| CCC(CC)COC(=O)[C@H](C)N[P@](=O)(OC[C@H]1O[C@@](C#N)(c2ccc3c(N)ncnn23)[C@H](O)[C@@H]1O)Oc1ccccc1 [remdesivir] |  | -4.06 | -2.36 |  |  |  |  |  |  |  |  |  |  | -1.64 | 1.83 | 1.47 | -0.708 | 6.06 | -3.33 | 12.2 | activation at 10 µM [10, 33]: 1.49%; activation at 100 µM [11, 34]: -2.36%; activation at 100 µM [12, 35]: 1.87%; activation at 10 µM [13, 36]: -0.797% |
| CC(C)OC(=O)[C@H](C)N[P@](=O)(OC[C@H]1O[C@@H](n2ccc(=O)[nH]c2=O)[C@](C)(F)[C@@H]1O)Oc1ccccc1 [sofosbuvir] |  | -1.13 | -0.878 |  |  |  |  |  |  |  |  |  |  | -0.455 | -1.21 | -0.149 | -2.03 | -0.617 | -1.13 | -0.354 | activation at 10 µM [10, 33]: -0.581%; activation at 100 µM [11, 34]: -0.627%; activation at 100 µM [12, 35]: 0.675%; activation at 10 µM [13, 36]: 0.191% |
| NC(=O)c1nc(F)cnc1O [favipiravir, 6-fluoro-3-hydroxy-2-pyrazinecarboxamide] | -1.25 | 1.89 |  | 0.965 |  |  | -1.59 |  | -3.33 | 0.0591 | -2.15 | 0.119 |  |  |  |  |  |  |  |  | activation at 10 µM ([3]; OPRM1, OPRM1 (opioid receptor, mu 1 (MOR1)), read-out: % GPCR activation compared to TPA): -1.89%; activation at 100 µM ([5]; GPCR V1B (arginine vasopressin receptor 1B), 100μM, read-out: % GPCR activation compared to TPA): 1.12%; activation at 100 µM ([6]; GPCR CXCR3 (C-X-C motif chemokine receptor 3), 100μM, read-out: % GPCR activation compared to TPA): -0.62%; activation at 100 µM ([8]; GPCR PK1 (prokineticin receptor 1), 100μM, read-out: % GPCR activation compared to TPA): -2.82%; activation at 100 µM ([13]; GPCR GPR56 (G protein-coupled receptor 56), 100μM, read-out: % GPCR activation compared to TPA): -0.74% |
| CC(C)C(=O)OC[C@H]1O[C@@H](n2ccc(NO)nc2=O)[C@H](O)[C@@H]1O [molnupiravir] | -1.71 | -1.3 | -3.97 | -0.705 | -0.66 | -2.3 | -0.606 | -3.53 | 0.166 | -4.49 | -2.02 | 0.374 | -2.2 |  |  |  |  |  |  |  |  |
